In patent publication US20230117034A1, “PYRAZOLOTRIAZINES” (Bayer Aktiengesellschaft, priority 2019, published 2023):
Like-named read-outs stand apart in the source and are kept apart here.

What was measured:
CDK2/CycE = target: T1, CDK2/CycE (Homo sapiens, UniProt P24941); test: CDK2/CycE kinase assay (TR-FRET, 2 mM ATP); assay type: biochemical; conditions: 2 mM ATP (high ATP); median; read-out: CDK2/CyclinE, 2 mM ATP (high ATP), IC50 (median)
T1 construct: purchased ProQinase GmbH (Freiburg, Germany); host or cells: insect cells (Sf9)
Outline: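 GST-tagged human CDK2 and CycE from Sf9 cells, about 10 ng/ml, pre-incubated 15 min at 22 °C with compound in Tris/HCl pH 8.0 buffer. Reaction with 2 mM ATP and 0.75 µM biotinylated peptide for 25 min at 22 °C. Phospho-RB antibody TR-FRET (665/620 nm ratio) read after 1 h; data normalised to no-inhibitor and no-enzyme controls.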

[1] = target: T2, CDK12 (nuclear staining in CAL-120 cells) (Homo sapiens, UniProt Q9NYV4); test: CDK12 nuclear protein level: immunofluorescence/high content analysis (CAL-120); assay type: cell-based; conditions: for DC50: CAL-120 cells, 24 h, immunofluorescence, 50% reduction of nuclear CDK12 staining intensity, median, read-out: CDK12 degradation IF, DC50- [mol/l] (median); for (IC50 CDK12 high ATP) to (Degradation DC50 CDK12) ratio: ratio of IC50 CDK12 high ATP kinase assay to DC50 CDK12 degradation (IF, CAL-120)
T2 construct: endogenous in cells; host or cells: CAL-120 human breast cancer cells (DSMZ ACC 459)
Outline: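 CAL-120 cells were treated with compound for 24 h at 37 °C, fixed with PFA and immunostained for CDK12. Nuclear CDK12 intensity was quantified by automated image analysis and normalized to DMSO and control. DC50 is the concentration giving 50% reduction of nuclear staining.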

[2] = tested on: BRCA1 mRNA expression in MDA-MB-231 cells; test: qRT-PCR assay: BRCA1 mRNA expression in MDA-MB-231; assay type: cell-based, human; conditions: median, read-out: RTqPCR-MDA-MB-231, IC50, BRCA1 (median)
Outline: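 MDA-MB-231 cells, 200,000/well, treated 24 h after plating with continuous 24 h compound exposure. RNA extracted, 600 ng reverse-transcribed, BRCA1 measured by RT-qPCR normalized to GAPDH.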

[3] = Homo sapiens, MDA-MB-231, Inhibition of BRCA1 mRNA expression in MDA-MB-231 cells

T2 sequence (Q9NYV4 whole entry): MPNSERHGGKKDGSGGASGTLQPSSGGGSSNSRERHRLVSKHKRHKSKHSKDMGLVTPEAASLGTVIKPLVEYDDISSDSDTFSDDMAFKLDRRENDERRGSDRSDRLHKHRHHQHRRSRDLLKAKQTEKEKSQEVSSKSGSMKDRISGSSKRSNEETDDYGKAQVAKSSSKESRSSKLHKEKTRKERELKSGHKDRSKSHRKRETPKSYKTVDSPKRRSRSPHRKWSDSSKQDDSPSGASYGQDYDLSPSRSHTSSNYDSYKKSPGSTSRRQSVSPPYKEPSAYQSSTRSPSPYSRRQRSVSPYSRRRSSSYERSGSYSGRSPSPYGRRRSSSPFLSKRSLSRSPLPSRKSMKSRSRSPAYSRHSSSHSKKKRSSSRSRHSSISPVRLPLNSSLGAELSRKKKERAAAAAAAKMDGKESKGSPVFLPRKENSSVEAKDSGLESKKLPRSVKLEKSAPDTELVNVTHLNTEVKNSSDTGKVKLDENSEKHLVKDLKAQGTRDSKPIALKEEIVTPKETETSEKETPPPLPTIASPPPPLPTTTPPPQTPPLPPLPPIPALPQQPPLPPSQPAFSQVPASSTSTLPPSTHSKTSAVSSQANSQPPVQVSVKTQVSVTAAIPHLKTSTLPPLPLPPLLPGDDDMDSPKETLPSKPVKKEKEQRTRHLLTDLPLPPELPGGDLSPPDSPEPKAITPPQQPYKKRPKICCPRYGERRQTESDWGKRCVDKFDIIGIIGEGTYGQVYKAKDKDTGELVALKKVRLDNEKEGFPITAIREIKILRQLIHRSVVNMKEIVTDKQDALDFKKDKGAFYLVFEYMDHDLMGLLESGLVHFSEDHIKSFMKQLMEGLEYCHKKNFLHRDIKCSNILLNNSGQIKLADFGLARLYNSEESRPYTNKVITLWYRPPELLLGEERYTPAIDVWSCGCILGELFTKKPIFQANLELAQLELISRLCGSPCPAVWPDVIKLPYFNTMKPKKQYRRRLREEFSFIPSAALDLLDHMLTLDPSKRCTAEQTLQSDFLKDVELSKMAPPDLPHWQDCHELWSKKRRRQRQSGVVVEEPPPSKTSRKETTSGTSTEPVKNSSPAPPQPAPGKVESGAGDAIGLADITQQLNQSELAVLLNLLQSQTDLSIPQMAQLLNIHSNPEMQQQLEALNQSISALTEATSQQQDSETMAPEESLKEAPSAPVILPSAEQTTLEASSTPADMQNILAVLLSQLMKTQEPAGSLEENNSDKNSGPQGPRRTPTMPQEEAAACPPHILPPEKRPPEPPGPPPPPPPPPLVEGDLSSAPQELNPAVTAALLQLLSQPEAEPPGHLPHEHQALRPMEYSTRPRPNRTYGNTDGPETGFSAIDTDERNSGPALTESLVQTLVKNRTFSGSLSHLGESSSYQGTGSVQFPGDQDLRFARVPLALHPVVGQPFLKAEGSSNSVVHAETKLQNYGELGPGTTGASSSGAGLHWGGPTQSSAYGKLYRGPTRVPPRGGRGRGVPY
T2 sequence (O75909 whole entry partner): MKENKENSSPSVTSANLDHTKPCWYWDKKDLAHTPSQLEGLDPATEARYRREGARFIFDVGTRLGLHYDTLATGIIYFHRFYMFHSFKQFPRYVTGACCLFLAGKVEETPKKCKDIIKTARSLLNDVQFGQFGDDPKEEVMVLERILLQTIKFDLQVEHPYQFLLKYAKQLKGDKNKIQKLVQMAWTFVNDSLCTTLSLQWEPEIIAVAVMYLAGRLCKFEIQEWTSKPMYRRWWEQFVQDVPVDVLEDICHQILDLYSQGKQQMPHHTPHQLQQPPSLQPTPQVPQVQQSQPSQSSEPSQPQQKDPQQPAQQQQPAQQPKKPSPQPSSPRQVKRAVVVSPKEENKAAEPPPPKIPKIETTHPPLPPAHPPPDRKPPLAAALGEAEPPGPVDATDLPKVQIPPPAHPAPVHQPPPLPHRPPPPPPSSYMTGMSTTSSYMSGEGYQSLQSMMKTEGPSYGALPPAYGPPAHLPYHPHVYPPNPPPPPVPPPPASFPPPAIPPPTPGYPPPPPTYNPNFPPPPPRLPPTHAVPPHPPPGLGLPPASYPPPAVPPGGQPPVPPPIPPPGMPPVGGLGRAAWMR

SMILES	IC50 (CDK2/CycE)	DC50 [1]	(IC50 CDK12 high ATP) to (Degradation DC50 CDK12) ratio [1]	IC50 ([2]; Inhibition of BRCA1 mRNA expression in MDA-MB-231 cells)	IC50 [2, 3]
Brc1cnn2c(NCc3nc4ccccc4[nH]3)nc(N3C[C@H]4CC[C@@H]3CO4)nc12 (single isomer, unassigned; enantiomer 2) [Example 391, N-[(1H-benzimidazol-2-yl)methyl]-8-bromo-2-{[1R or S-(1R*,4R*)]-2-oxa-5-azabicyclo[2.2.2]octan-5-yl}pyrazolo[1,5-a][1,3,5]triazin-4-amine (Enantiomer 2)]	4910 nM	6.98 nM	960	3.77 nM	–
Clc1cc2nc(CNc3nc(N4CC5CCC(C4)N5)nc4c(C5CC5)cnn34)[nH]c2cc1Cl [Example 324, 8-cyclopropyl-2-(3,8-diazabicyclo[3.2.1]octan-3-yl)-N-[(5,6-dichloro-1H-benzimidazol-2-yl)methyl]pyrazolo[1,5-a][1,3,5]triazin-4-amine]	13800 nM	18 nM	48	–	8.86 nM
CN(CC(C)(C)O)c1nc(NCc2nc3cc(F)c(F)cc3[nH]2)n2ncc(C3CC3)c2n1 [Example 319, 1-[(8-cyclopropyl-4-{[(5,6-difluoro-1H-benzimidazol-2-yl)methyl]amino}pyrazolo[1,5-a][1,3,5]triazin-2-yl)(methyl)amino]-2-methylpropan-2-ol]	12100 nM	3.06 nM	780	–	9.97 nM
CN(CC(C)(C)O)c1nc(NCc2nc3cc(C(F)(F)F)ccc3[nH]2)n2ncc(C3CC3)c2n1 [Example 323, 1-{[8-cyclopropyl-4-({[5-(trifluoromethyl)-1H-benzimidazol-2-yl]methyl}amino)pyrazolo[1,5-a][1,3,5]triazin-2-yl](methyl)amino}-2-methylpropan-2-ol]	13500 nM	16.9 nM	169	–	16.9 nM
CCNc1nc(NCc2nc(-c3ccc(C)cc3)c[nH]2)n2ncc(Br)c2n1 [Example 26, 8-bromo-N^2-ethyl-N^4-{[4-(4-methylphenyl)-1H-imidazol-2-yl]methyl}pyrazolo[1,5-a][1,3,5]triazine-2,4-diamine]	2070 nM	58.4 nM	55	–	74.4 nM
Cc1ccnc2[nH]c(CNc3nc(N4CCN(C)CC4)nc4c(C(C)C)cnn34)nc12 [Example 32, N-[(7-methyl-3H-imidazo[4,5-b]pyridin-2-yl)methyl]-2-(4-methylpiperazin-1-yl)-8-(propan-2-yl)pyrazolo[1,5-a][1,3,5]triazin-4-amine]	15600 nM	7.21 nM	2565	–	–
CC[C@@H](CO)Nc1nc(NCc2nc3ccccc3[nH]2)n2ncc(Br)c2n1 [Example 367, (2S)-2-[(4-{[(1H-benzimidazol-2-yl)methyl]amino}-8-bromopyrazolo[1,5-a][1,3,5]triazin-2-yl)amino]butan-1-ol]	573 nM	12.7 nM	231	–	–
CN(c1nc(NCc2nc3ccccc3[nH]2)n2ncc(Br)c2n1)[C@H]1C[C@H](O)C1 [Example 365, trans-3-[(4-{[(1H-benzimidazol-2-yl)methyl]amino}-8-bromopyrazolo[1,5-a][1,3,5]triazin-2-yl)(methyl)amino]cyclobutan-1-ol]	1740 nM	23.6 nM	247	–	–
CC[C@H](CO)Nc1nc(NCc2nc3ccccc3[nH]2)n2ncc(Br)c2n1 [Example 368, (2R)-2-[(4-{[(1H-benzimidazol-2-yl)methyl]amino}-8-bromopyrazolo[1,5-a][1,3,5]triazin-2-yl)amino]butan-1-ol]	885 nM	9.39 nM	516	–	–
CN1CCC(Oc2nc(NCc3nc4ccccc4[nH]3)n3ncc(Br)c3n2)CC1 [Example 389, N-[(1H-benzimidazol-2-yl)methyl]-8-bromo-2-[(1-methylpiperidin-4-yl)oxy]pyrazolo[1,5-a][1,3,5]triazin-4-amine]	> 20000 nM	33.5 nM	>597	–	–
CN1CCN(c2nc(NCc3nc4cc(OC(F)(F)F)ccc4[nH]3)n3ncc(Br)c3n2)CC1 [Example 377, 8-bromo-2-(4-methylpiperazin-1-yl)-N-{[5-(trifluoromethoxy)-1H-benzimidazol-2-yl]methyl}pyrazolo[1,5-a][1,3,5]triazin-4-amine]	17100 nM	20.2 nM	252	–	–
CN1CCN(c2nc(NCc3nc4c(OC(F)(F)F)cccc4[nH]3)n3ncc(Br)c3n2)CC1 [Example 376, 8-bromo-2-(4-methylpiperazin-1-yl)-N-{[4-(trifluoromethoxy)-1H-benzimidazol-2-yl]methyl}pyrazolo[1,5-a][1,3,5]triazin-4-amine]	> 20000 nM	12.4 nM	>1615	–	–
FC(F)(F)Oc1cccc2[nH]c(CNc3nc(N4CCOCC4)nc4c(Br)cnn34)nc12 [Example 375, 8-bromo-2-(morpholin-4-yl)-N-{[4-(trifluoromethoxy)-1H-benzimidazol-2-yl]methyl}pyrazolo[1,5-a][1,3,5]triazin-4-amine]	11900 nM	58.1 nM	79	–	–
CC[C@H](COC)Nc1nc(NCc2nc3ccccc3[nH]2)n2ncc(Br)c2n1 [Example 369, N4-[(1H-benzimidazol-2-yl)methyl]-8-bromo-N2-[(2R)-1-methoxybutan-2-yl]pyrazolo[1,5-a][1,3,5]triazine-2,4-diamine]	10500 nM	20.6 nM	>970	–	–
FC(F)(F)Oc1cccc2[nH]c(CNc3nc(N4C[C@H]5CC[C@@H](C4)N5)nc4c(Br)cnn34)nc12 [Example 381, 8-bromo-2-[(1R,5S)-3,8-diazabicyclo[3.2.1]octan-3-yl]-N-{[4-(trifluoromethoxy)-1H-benzimidazol-2-yl]methyl}pyrazolo[1,5-a][1,3,5]triazin-4-amine]	> 20000 nM	22.2 nM	266	–	–
CN1CCCN(c2nc(NCc3nc4ccccc4[nH]3)n3ncc(Br)c3n2)CC1 [Example 390, N-[(1H-benzimidazol-2-yl)methyl]-8-bromo-2-(4-methyl-1,4-diazepan-1-yl)pyrazolo[1,5-a][1,3,5]triazin-4-amine]	> 20000 nM	19.2 nM	>1041	–	–
CN(CC(C)(C)O)c1nc(NCc2nc3cc(OC(F)(F)F)ccc3[nH]2)n2ncc(Br)c2n1 [Example 378, 1-{[8-bromo-4-({[5-(trifluoromethoxy)-1H-benzimidazol-2-yl]methyl}amino)pyrazolo[1,5-a][1,3,5]triazin-2-yl](methyl)amino}-2-methylpropan-2-ol]	8110 nM	29.1 nM	15	–	–
FC(F)(F)c1ccc2[nH]c(CNc3nc(N4CC5CCC(C4)N5)nc4c(Br)cnn34)nc2c1 [Example 354, 8-bromo-2-(3,8-diazabicyclo[3.2.1]octan-3-yl)-N-{[5-(trifluoromethyl)-1H-benzimidazol-2-yl]methyl}pyrazolo[1,5-a][1,3,5]triazin-4-amine]	–	71.3 nM	52	–	< 100 nM
